Source: US9353146B2, “Acylation derivatives of paridis saponins I, preparation method therefor and application thereof” (HANGZHOU BENSHENG PHARMACEUTICAL CO., LTD., priority 2012, dated 2016)
In brackets after ≈: the same amount, converted by molar mass.

Legend:
[1] = test system: K562/adr (drug-resistant, chronic myeloid leukemia, CML); test: Anti-leukemia cell growth inhibition, MTT method, 72 h; type: cell-based, human; conditions: for IC50 / IC90: Homo sapiens, K562/Adr
Source text: (§1) Leukemia cell lines: leukemia cell lines: K562/adr (drug-resistant, chronic myeloid leukemia, CML), NB4 (acute promyelocytic leukemia, AML), and Kasumi-1 (acute myeloid leukemia M2 type, AML-M2), all of which were donated by Cancer Research Institute of Zhejiang University, China.
(§2) 6000 well-growing leukemia cells were obtained and inoculated into wells of a 96-well cell culture plate. The culture medium used was the 1640 cell culture medium containing 10% fetal bovine serum. After adding the Polyphyllin I derivatives with 5′-acylated arabinofuranosyl of different concentrations and mixing uniformly, the plate was placed in a carbon dioxide cell incubator (5% CO2) at 37° C. and incubated for 72 hours. Then the viable cell concentration was determined by the MTT method. In this experiment, the cell viability in control group (not treated with any compound) is set as 100%. On such basis, the cell viability (%) after treatment of the compound and the 50% inhibiting concentration for the leukemia cell growth at 72 hours (IC50 value and IC90 value of 72 hours) were calculated.

[2] = test system: NB4 (acute promyelocytic leukemia, AML); test: as above; type: cell-based, human; conditions: for IC50 / IC90: Homo sapiens
Source text: as §1, §2

A549 (human lung cancer) = test: Anti-human solid tumor cell growth inhibition, MTT method, 72 h; type: cell-based; conditions: for IC50 / IC90: Homo sapiens, A549
Source text: (§3) Human solid tumor cell lines: A549 (human lung cancer) and SK-OV-3 (ovarian cancer cell), all of which are purchased from China Center For Type Culture Collection; RKO (human colon adenocarcinoma cell) and MG-63 (osteosarcoma), all of which are purchased from Fuxiang Bio-tech Co. Ltd., Shanghai, China; Hela (human cervical cancer cell), donated by Cancer Research Institute of Zhejiang University, China.
(§4) 4000 well-growing human solid tumor cells were obtained and inoculated into wells of a 96-well cell culture plate. The culture medium used was DMEM High Glucose cell culture medium containing 10% fetal bovine serum. The plate is placed in a carbon dioxide cell incubator (5% CO2) at 37° C. and incubated for 24 hours. After adding the Polyphyllin I derivatives with 5′-acylated arabinofuranosyl group of different concentrations and mixing uniformly, the plate was continued to be placed in a carbon dioxide cell incubator (5% CO2) at 37° C. and incubated for 72 hours. Then the viable cell concentration was determined by the MTT method and the cell viability (%) after drug treatment was calculated. In this experiment, the cell viability of control group (not treated with any compound) is set as 100%.

[3] = test system: Hela (human cervical cancer cell); test: as above; type: cell-based; conditions: for IC50 / IC90: Homo sapiens, HeLa
Source text: as §3, §4

MG-63 (osteosarcoma) = test: as above; type: cell-based; conditions: for IC50 / IC90: Homo sapiens, MG-63
Source text: as §3, §4

[4] = test system: RKO (human colon adenocarcinoma cell); test: as above; type: cell-based; conditions: for IC90: Homo sapiens
Source text: as §3, §4

[5] = test system: Kasumi-1 (acute myeloid leukemia M2 type, AML-M2); test: Anti-leukemia cell growth inhibition, MTT method, 72 h; type: cell-based, human; conditions: for IC50: Homo sapiens, Kasumi 1
Source text: as §1, §2

[6] = test system: SK-OV-3 (ovarian cancer cell); test: Anti-human solid tumor cell growth inhibition, MTT method, 72 h; type: cell-based
Source text: as §3, §4

[7] = test system: nasopharyngeal carcinoma CNE-2 cell line; conditions: HUA Yonghong et al. 2011; cited from earlier work
[8] = test system: nasopharyngeal carcinoma CNE-2 cell line; conditions: DDP as positive control; HUA Yonghong et al. 2011; cited from earlier work
[9] = test system: human hepatocellular carcinoma SMMC-7721 cell line; conditions: in vitro; XIAO Meifang et al. 2011; cited from earlier work

Row | Structure (SMILES) | IC50 [1] | IC90 [1] | IC50 [2] | IC90 [2] | IC50 (A549 (human lung cancer)) | IC90 (A549 (human lung cancer)) | IC50 [3] | IC90 [3] | IC90 [4] | other results
1 | CC(=O)OC[C@@H]1OC(O[C@H]2[C@H](O)[C@@H](OC3O[C@@H](C)[C@H](O)[C@@H](O)[C@H]3O)[C@H](O[C@H]3CC[C@@]4(C)C(=CCC5C6CC7O[C@]8(CC[C@@H](C)CO8)[C@@H](C)C7[C@@]6(C)CCC54)C3)O[C@@H]2CO)[C@H](O)[C@H]1O (stereo partly drawn) [BS-PP-11] | 0.42 µg/mL (≈ 0.468 µM) | 2.32 µg/mL (≈ 2.59 µM) | 0.94 µg/mL (≈ 1.05 µM) | 2.48 µg/mL (≈ 2.76 µM) | 0.83 µg/mL (≈ 0.925 µM) | 10.2 µg/mL (≈ 11.4 µM) | 0.62 µg/mL (≈ 0.691 µM) | 2.57 µg/mL (≈ 2.86 µM) | – | IC50 (MG-63 (osteosarcoma)): 0.33 µg/mL (≈ 0.368 µM); IC90 (MG-63 (osteosarcoma)): 0.76 µg/mL (≈ 0.847 µM)
2 | C[C@@H]1CC[C@@]2(OC1)OC1CC3C4CC=C5C[C@@H](O[C@@H]6O[C@H](CO)[C@@H](OC7O[C@@H](COC(=O)c8ccc(F)cc8F)[C@H](O)[C@H]7O)[C@H](O)[C@H]6OC6O[C@@H](C)[C@H](O)[C@@H](O)[C@H]6O)CC[C@]5(C)C4CC[C@]3(C)C1[C@@H]2C (stereo partly drawn) [BS-PP-08] | 0.49 µg/mL (≈ 0.492 µM) | 2.5 µg/mL (≈ 2.51 µM) | 0.85 µg/mL (≈ 0.854 µM) | 1.9 µg/mL (≈ 1.91 µM) | 1.19 µg/mL (≈ 1.2 µM) | 14.1 µg/mL (≈ 14.1 µM) | 0.61 µg/mL (≈ 0.613 µM) | 3.89 µg/mL (≈ 3.91 µM) | 4.93 µg/mL (≈ 4.95 µM) | –
3 | C[C@@H]1CC[C@@]2(OC1)OC1CC3C4CC=C5C[C@@H](O[C@@H]6O[C@H](CO)[C@@H](OC7O[C@@H](COC(=O)c8ccc(F)cc8)[C@H](O)[C@H]7O)[C@H](O)[C@H]6OC6O[C@@H](C)[C@H](O)[C@@H](O)[C@H]6O)CC[C@]5(C)C4CC[C@]3(C)C1[C@@H]2C (stereo partly drawn) [BS-PP-06] | 0.73 µg/mL (≈ 0.747 µM) | 2.66 µg/mL (≈ 2.72 µM) | 0.79 µg/mL (≈ 0.808 µM) | 4.09 µg/mL (≈ 4.19 µM) | – | – | – | – | 5.13 µg/mL (≈ 5.25 µM) | –
4 | C[C@@H]1CC[C@@]2(OC1)OC1CC3C4CC=C5C[C@@H](O[C@@H]6O[C@H](CO)[C@@H](OC7O[C@@H](COC(=O)c8ccncc8)[C@H](O)[C@H]7O)[C@H](O)[C@H]6OC6O[C@@H](C)[C@H](O)[C@@H](O)[C@H]6O)CC[C@]5(C)C4CC[C@]3(C)C1[C@@H]2C (stereo partly drawn) [BS-PP-04] | 0.38 µg/mL (≈ 0.396 µM) | 2.33 µg/mL (≈ 2.43 µM) | 0.91 µg/mL (≈ 0.948 µM) | 3.85 µg/mL (≈ 4.01 µM) | 1 µg/mL (≈ 1.04 µM) | 14.5 µg/mL (≈ 15.1 µM) | 0.48 µg/mL (≈ 0.5 µM) | 3.23 µg/mL (≈ 3.36 µM) | – | –
5 | C[C@@H]1CC[C@@]2(OC1)OC1CC3C4CC=C5C[C@@H](O[C@@H]6O[C@H](CO)[C@@H](OC7O[C@@H](COC(=O)c8ccco8)[C@H](O)[C@H]7O)[C@H](O)[C@H]6OC6O[C@@H](C)[C@H](O)[C@@H](O)[C@H]6O)CC[C@]5(C)C4CC[C@]3(C)C1[C@@H]2C (stereo partly drawn) [BS-PP-10] | 0.45 µg/mL (≈ 0.474 µM) | 2.23 µg/mL (≈ 2.35 µM) | 0.83 µg/mL (≈ 0.875 µM) | 2.82 µg/mL (≈ 2.97 µM) | 0.86 µg/mL (≈ 0.906 µM) | 10.2 µg/mL (≈ 10.8 µM) | 0.45 µg/mL (≈ 0.474 µM) | 2.01 µg/mL (≈ 2.12 µM) | 5.46 µg/mL (≈ 5.75 µM) | IC50 [5]: 0.78 µg/mL (≈ 0.822 µM); IC50 (MG-63 (osteosarcoma)): 0.33 µg/mL (≈ 0.348 µM); IC90 (MG-63 (osteosarcoma)): 0.85 µg/mL (≈ 0.896 µM); IC50 ([6]; Homo sapiens, SK-OV-3): 0.65 µg/mL (≈ 0.685 µM); IC90 ([6]; Homo sapiens, SK-OV-3): 0.97 µg/mL (≈ 1.02 µM)
6 | C[C@@H]1CC[C@@]2(OC1)O[C@H]1C[C@H]3[C@@H]4CC=C5C[C@@H](O[C@@H]6O[C@H](CO)[C@@H](O[C@@H]7O[C@@H](CO)[C@H](O)[C@H]7O)[C@H](O)[C@H]6O[C@@H]6O[C@@H](C)[C@H](O)[C@@H](O)[C@H]6O)CC[C@]5(C)[C@H]4CC[C@]3(C)[C@H]1[C@@H]2C [PP, 4-O-arabinofuranosyl-2-O-rhamnopyranosyl-β-D-glucopyranosyldioscin, reference compound] | – | – | – | – | – | – | – | – | – | K562/adr IC50 [1]: 0.87 µg/mL; K562/adr IC90 [1]: 2.98 µg/mL; Kasumi-1 IC50 [5]: 0.92 µg/mL; NB4 IC50 [2]: 1.84 µg/mL; NB4 IC90 [2]: 6.75 µg/mL; A549 IC50 (A549 (human lung cancer)): 1.86 µg/mL; A549 IC90 (A549 (human lung cancer)): 14.63 µg/mL; Hela IC50 [3]: 0.77 µg/mL; Hela IC90 [3]: 4.86 µg/mL; MG-63 IC50 (MG-63 (osteosarcoma)): 0.37 µg/mL; MG-63 IC90 (MG-63 (osteosarcoma)): 0.97 µg/mL; RKO IC90 [4]: 8.48 µg/mL; SK-OV-3 IC50 [6]: 0.70 µg/mL; SK-OV-3 IC90 [6]: 1.70 µg/mL; effects on the proliferation of CNE-2 cells [7]: time- and dose-dependent inhibitory effects; radiosensitizing effects on CNE-2 cell line [8]: concentration-dependent radiosensitizing effects; effect on proliferation of SMMC-7721 cells [9]: inhibit the proliferation of hepatocellular carcinoma SMMC-7721 cells in a time- and concentration-dependent manner
7 | C[C@@H]1CC[C@@]2(OC1)OC1CC3C4CC=C5C[C@@H](O[C@@H]6O[C@H](CO)[C@@H](OC7O[C@@H](COC(=O)c8ccc(F)cc8Cl)[C@H](O)[C@H]7O)[C@H](O)[C@H]6OC6O[C@@H](C)[C@H](O)[C@@H](O)[C@H]6O)CC[C@]5(C)C4CC[C@]3(C)C1[C@@H]2C (stereo partly drawn) [BS-PP-15] | 0.76 µg/mL (≈ 0.751 µM) | 2 µg/mL (≈ 1.98 µM) | 1.19 µg/mL (≈ 1.18 µM) | 3.4 µg/mL (≈ 3.36 µM) | 1.8 µg/mL (≈ 1.78 µM) | 9.9 µg/mL (≈ 9.79 µM) | 0.68 µg/mL (≈ 0.672 µM) | 3.51 µg/mL (≈ 3.47 µM) | 5.13 µg/mL (≈ 5.07 µM) | –
8 | C[C@@H]1CC[C@@]2(OC1)OC1CC3C4CC=C5C[C@@H](O[C@@H]6O[C@H](CO)[C@@H](OC7O[C@@H](COC(=O)c8cccs8)[C@H](O)[C@H]7O)[C@H](O)[C@H]6OC6O[C@@H](C)[C@H](O)[C@@H](O)[C@H]6O)CC[C@]5(C)C4CC[C@]3(C)C1[C@@H]2C (stereo partly drawn) [BS-PP-09] | – | – | 1.11 µg/mL (≈ 1.15 µM) | 3.92 µg/mL (≈ 4.06 µM) | 1.6 µg/mL (≈ 1.66 µM) | 13 µg/mL (≈ 13.5 µM) | 0.55 µg/mL (≈ 0.57 µM) | 2 µg/mL (≈ 2.07 µM) | 5.25 µg/mL (≈ 5.44 µM) | –
9 | C[C@@H]1CC[C@@]2(OC1)OC1CC3C4CC=C5C[C@@H](O[C@@H]6O[C@H](CO)[C@@H](OC7O[C@@H](COC(=O)c8ccc(C(F)(F)F)cc8)[C@H](O)[C@H]7O)[C@H](O)[C@H]6OC6O[C@@H](C)[C@H](O)[C@@H](O)[C@H]6O)CC[C@]5(C)C4CC[C@]3(C)C1[C@@H]2C (stereo partly drawn) [BS-PP-05] | – | – | – | – | 1.8 µg/mL (≈ 1.75 µM) | 12 µg/mL (≈ 11.7 µM) | – | – | 6.82 µg/mL (≈ 6.64 µM) | –
10 | COc1ccc(C(=O)OC[C@@H]2OC(O[C@H]3[C@H](O)[C@@H](OC4O[C@@H](C)[C@H](O)[C@@H](O)[C@H]4O)[C@H](O[C@H]4CC[C@@]5(C)C(=CCC6C7CC8O[C@]9(CC[C@@H](C)CO9)[C@@H](C)C8[C@@]7(C)CCC65)C4)O[C@@H]3CO)[C@H](O)[C@H]2O)cc1 (stereo partly drawn) [BS-PP-03] | 0.69 µg/mL (≈ 0.698 µM) | – | 1.13 µg/mL (≈ 1.14 µM) | 1.96 µg/mL (≈ 1.98 µM) | – | – | – | – | 4.5 µg/mL (≈ 4.55 µM) | –
11 | C[C@@H]1CC[C@@]2(OC1)OC1CC3C4CC=C5C[C@@H](O[C@@H]6O[C@H](CO)[C@@H](OC7O[C@@H](COC(=O)C8CC8)[C@H](O)[C@H]7O)[C@H](O)[C@H]6OC6O[C@@H](C)[C@H](O)[C@@H](O)[C@H]6O)CC[C@]5(C)C4CC[C@]3(C)C1[C@@H]2C (stereo partly drawn) [BS-PP-12] | 0.42 µg/mL (≈ 0.455 µM) | 2.14 µg/mL (≈ 2.32 µM) | 1.22 µg/mL (≈ 1.32 µM) | 3.96 µg/mL (≈ 4.29 µM) | 0.86 µg/mL (≈ 0.932 µM) | 7.38 µg/mL (≈ 7.99 µM) | 0.5 µg/mL (≈ 0.542 µM) | 3.19 µg/mL (≈ 3.46 µM) | 6.08 µg/mL (≈ 6.59 µM) | IC50 [5]: 0.86 µg/mL (≈ 0.932 µM)
